The source of these data is patent US20230012368A1 (Hoffmann-La Roche Inc., priority 2018, published 2023).

Counter-ions that a name gives are not always drawn.

The first experiment deals with Acinetobacter baumannii ATCC 17978. As to the kind of experiment: Antimicrobial susceptibility testing: 90% growth inhibitory concentration (IC90) determination. It counts as cell-based. The note with it: 90% growth inhibitory concentration; Acinetobacter baumannii ATCC17978; Iso-Sensitest broth, OD 600 nm over 16h; read-out: ATCC17978 IC90. Summed up: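 Compounds serially twofold diluted (e.g. 50 to 0.097 μM final) in Iso-Sensitest broth, inoculated at ~5×10^(5) CFU/ml, incubated at 35±2° C. OD600 read every 20 minutes over 16h. IC90 taken as concentration inhibiting 90% of growth during logarithmic phase.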
For the molecule `CCc1cc(Nc2nccn3c(-c4ccc(Oc5ncccn5)c(F)c4F)cnc23)ccc1C(=O)NCCNC(=O)[C@@H](N)CCNC(=N)N` [Example 438, N-[2-[[(2S)-2-amino-4-guanidino-butanoyl]amino]ethyl]-4-[[3-(2,3-difluoro-4-pyrimidin-2-yloxy-phenyl)imidazo[1,2-a]pyrazin-8-yl]amino]-2-ethyl-benzamide; formic acid], the IC90 (usually the point of the concentration-response curve where the effect stands at 90%) turned out to be 0.55 µM.

In the case of `CCc1cc(Nc2nccn3c(-c4ccc(Cl)cc4F)cnc23)ccc1C(=O)NCCCN` [Example 283, N-(3-aminopropyl)-4-[[3-(4-chloro-2-fluorophenyl)imidazo[1,2-a]pyrazin-8-yl]amino]-2-ethylbenzamide; hydrochloride], the concentration for an effect of 90% (IC90) was determined as 2 µM.

Consider `CCc1cc(Nc2nccn3c(-c4ccc(OC(F)F)c(F)c4F)cnc23)ccc1C(=O)NC(CC)CCN` (centres unmarked) [Example 317, N-(1-aminopentan-3-yl)-4-[[3-[4-(difluoromethoxy)-2,3-difluorophenyl]imidazo[1,2-a]pyrazin-8-yl]amino]-2-ethylbenzamide; hydrochloride], for which the IC90 is 2.5 µM.

Consider “tert-butyl 3-[[[4-[[3- [4- (difluoromethoxy) phenyl]imidazo[1,2- a]pyrazin-8- yl]amino]-2-methyl- benzoyl]amino] methyl] pyrrolidine-1- carboxylate [Example 47]”, for which the 90% effect concentration (IC90) is 1.7 µM.

Consider `CCc1cc(Nc2nccn3c(-c4ccc(OC)c(F)c4F)cnc23)ccc1C(=O)N[C@@H](CCN)C(=O)OC` [Example 322, methyl (2S)-4-amino-2-[[4-[[3-(2,3-difluoro-4-methoxyphenyl)imidazo[1,2-a]pyrazin-8-yl]amino]-2-ethylbenzoyl]amino]butanoate; hydrochloride], for which the IC90 came out at 4.4 µM.

Take `CCc1cc(Nc2nccn3c(-c4ccc(OC)c(F)c4F)cnc23)ccc1C(=O)N[C@@H](CN)c1ccccc1` [Example 321, N-[(1R)-2-amino-1-phenylethyl]-4-[[3-(2,3-difluoro-4-methoxyphenyl)imidazo[1,2-a]pyrazin-8-yl]amino]-2-ethylbenzamide; hydrochloride]: the IC90 stood at 4 µM.

Still in this experiment, the particulars now being: Acinetobacter baumannii, ATCC17978, 16 h, 90% growth inhibitory concentration; Acinetobacter baumannii ATCC17978; Iso-Sensitest broth, OD 600 nm over 16h; read-out: ATCC17978 IC90.
`N#CCOc1ccc(-c2cnc3c(Nc4ccc(C(=O)NCCCc5ccncc5)c(Cl)c4)nccn23)c(F)c1F` [Example 76, 2-chloro-4-[[3-[4-(cyanomethoxy)-2,3-difluoro-phenyl]imidazo[l,2-a]pyrazin-8-yl]amino]-N-[3-(4-pyridyl)propyl] benzamide; 2,2,2-trifluoroacetic acid]: the IC90 was 0.17 µM.

As for `COc1ccc(-c2cnc3c(Nc4ccc(C(=O)N(C)CC(=O)N5CCNC(C(=O)O)C5)c(C)c4)nccn23)cc1F` (centres unmarked) [Example 173, 4-[2-[[4-[[3-(3-fluoro-4-methoxyphenyl)imidazo[1,2-a]pyrazin-8-yl]amino]-2-methylbenzoyl]-methylamino]acetyl]piperazine-2-carboxylic acid;hydrochloride], the IC90 came to 8.6 µM.

`CCc1cc(Nc2nccn3c(-c4ccc(OC)c(F)c4Cl)cnc23)ccc1C(=O)NCCNC(=O)[C@@H](N)CCCNC(=N)N` [Example 126, N-[2-[[(2S)-2-amino-5-guanidino-pentanoyl]amino]ethyl]-4-[[3-(2-chloro-3-fluoro-4-methoxy-phenyl)imidazo[1,2-a]pyrazin-8-yl]amino]-2-ethyl-benzamide formate]: the IC90 turned out to be 0.21 µM.

Turning to `COc1ccc(-c2cnc3c(Nc4ccc(C(=O)NCCNC(=O)[C@@H]5C[C@](C)(O)CN5)c(C)c4)nccn23)c(F)c1F` [Example 372, (2S,4S)-N-[2-[[4-[[3-(2,3-difluoro-4-methoxyphenyl)imidazo[1,2-a]pyrazin-8-yl]amino]-2-methylbenzoyl]amino]ethyl]-4-hydroxy-4-methylpyrrolidine-2-carboxamide], the 90% effect concentration (IC90) was 0.15 µM.

Turning to `CCc1cc(Nc2nccn3c(-c4ccc(OC)c(F)c4F)cnc23)ccc1C(=O)NCCCNC(=O)[C@H](CCCNC(=N)N)NC(=O)CC[C@H](N)C(=O)O` [Example 407, N5-((S)-1-((3-(4-((3-(2,3-difluoro-4-methoxyphenyl)imidazo[1,2-a]pyrazin-8-yl)amino)-2-ethylbenzamido)propyl)amino)-5-guanidino-1-oxopentan-2-yl)-L-glutamine trihydrochloride], the IC90 turned out to be 0.94 µM.

On to `Cc1cc(Nc2nccn3c(-c4ccc(OC(F)F)cc4)cnc23)ccc1C(=O)NCCN1CCOCC1` [Example 230, 4-[[3-[4-(difluoromethoxy)phenyl]im-idazo[1,2-a]pyrazin-8-yl]amino]-2-methyl-N-(2-morpholin-4-ylethyl)benzamide], for which the 90% effect concentration (IC90) is 1.2 µM.

On to `Cn1ccc(CNC(=O)c2ccc(Nc3nccn4c(-c5ccc(OCC#N)c(F)c5F)cnc34)cc2Cl)cc1=O` [Example 86, 2-chloro-4-[[3-[4-(cyanomethoxy)-2,3-difluoro-phenyl]imidazo[1,2-a]pyrazin-8-yl]amino]-N-[(1-methyl-2-oxo-4-pyridyl)methyl] benzamide], for which the concentration for an effect of 90% (IC90) was 0.14 µM.

On to `N#CCOc1ccc(-c2cnc3c(Nc4ccc(C(=O)NCCCCN)c(Cl)c4)nccn23)c(F)c1F` [Example 519, N-(4-aminobutyl)-2-chloro-4-((3-(4-(cyanomethoxy)-2,3-difluorophenyl)imidazo[1,2-a]pyrazin-8-yl)amino)benzamide], for which the IC90 worked out at 0.047 µM.

Consider `Cc1cc(Nc2nccn3c(-c4ccc(OCC#N)c(F)c4F)cnc23)ccc1C(=O)NC[C@H](N)CNC(=O)[C@@H]1C[C@@H](O)CN1` [Example 470, (2S,4R)-N-[(2S)-2-amino-3-[[4-[[3-[4-(cyanomethoxy)-2,3-difluoro-phenyl]imidazo[1,2-a]pyrazin-8-yl]amino]-2-methyl-benzoyl]amino]propyl]-4-hydroxy-pyrrolidine-2-carboxamide; formic acid], for which the IC90 came to 0.6 µM.

In the case of `CCc1cc(Nc2nccn3c(-c4ccc(Oc5ccccn5)c(F)c4F)cnc23)ccc1C(=O)NCC(=O)N1CCN[C@H](CO)C1` [Example 474, 4-[[3-[2,3-difluoro-4-(2-pyridyloxy)phenyl]imidazo [1,2-a]pyrazin-8-yl]amino]-2-ethyl-N-[2-[(3S)-3-(hydroxymethyl)piperazin-1-yl]-2-oxo-ethyl]benzamide], the 90% effect concentration (IC90) was 0.91 µM.

As for `CCc1cc(Nc2nccn3c(-c4ccc(OC)c(F)c4F)cnc23)ccc1C(=O)NCC(O)CNC(=O)CCCN` (centres unmarked) [Example 410, N-(3-(4-aminobutanamido)-2-hydroxypropyl)-4-((3-(2,3-difluoro-4-methoxyphenyl)imidazo[1,2-a]pyrazin-8-yl)amino)-2-ethylbenzamide hydrochloride], the IC90 turned out to be 0.21 µM.

Regarding `CCc1cc(Nc2nccn3c(-c4ccc(OC)c(F)c4F)cnc23)ccc1C(=O)NCCCC[C@H](N)C(=O)O` [Example 344, (2S)-2-amino-6-[[4-[[3-(2,3-difluoro-4-methoxyphenyl)imidazo[1,2-a]pyrazin-8-yl]amino]-2-ethylbenzoyl]amino]hexanoic acid;2,2,2-trifluoroacetic acid], the IC90 stood at 0.8 µM.

With `CCc1cc(Nc2nccn3c(-c4ccc(Oc5ccc(OC)cn5)c(F)c4F)cnc23)ccc1C(=O)NCCNC(=O)[C@H](N)CCNC(=N)N` [Example 450, N-[2-[[(2R)-2-amino-4-guanidino-butanoyl]amino]ethyl]-4-[[3-[2,3-difluoro-4-[(5-methoxy-2-pyridyl)oxy]phenyl]imidazo [1,2-a]pyrazin-8-yl]amino]-2-ethyl-benzamide], the 90% effect concentration (IC90) turned out to be 0.56 µM.

Regarding `CCc1cc(Nc2nccn3c(-c4ccc(OC)c(F)c4F)cnc23)ccc1C(=O)NCc1ccncc1` [Example 560, 4-((3-(2,3-difluoro-4-methoxyphenyl)imidazo[1,2-a]pyrazin-8-yl)amino)-2-ethyl-N-(pyridin-4-ylmethyl)benzamide formate], the 90% effect concentration (IC90) worked out at 0.08 µM.

For `Cc1cc(Nc2nccn3c(-c4ccc(OC(F)F)cc4)cnc23)ccc1C(=O)N(C)CCN1CCNCC1` [Example 45, 4-[[3-[4-(difluoromethoxy)phenyl]imidazo[1,2-a]pyrazin-8-yl]amino]-N,2-dimethyl-N-(2-piperazin-1-ylethyl)benzamide], the 90% effect concentration (IC90) turned out to be 0.35 µM.

For the molecule `CCc1cc(Nc2nccn3c(-c4ccc(OCC#CCN)c(F)c4F)cnc23)ccc1C(=O)NCCCN` [Example 287, 4-[[3-[4-(4-aminobut-2-ynoxy)-2,3-difluorophenyl]imidazo[1,2-a]pyrazin-8-yl]amino]-N-(3-aminopropyl)-2-ethylbenzamide], the IC90 stood at 2.9 µM.

For the molecule `Cc1cc(Nc2nccn3c(-c4ccc(Cl)c(F)c4F)cnc23)ccc1C(=O)N[C@@H](C)CN` [Example 258, N-[(2S)-1-aminopropan-2-yl]-4-[[3-(4-chloro-2,3-difluorophenyl)imidazo[1,2-a]pyrazin-8-yl]amino]-2-methylbenzamide;hydrochlo-ride], the concentration for an effect of 90% (IC90) amounted to 3.6 µM.

Take `COc1ccc(-c2cnc3c(Nc4ccc(C(=O)NCC5CCNCC5)c(C)c4)nccn23)c(F)c1F` [Example 55, 4-[[3-(2,3-difluoro-4-methoxy-phenyl)imidazo[1,2-a]pyrazin-8-yl]amino]-2-methyl-N-(4-piperidylmethyl) benzamide]: the 90% effect concentration (IC90) is 0.26 µM.

With `Cc1cc(Nc2nccn3c(-c4ccc(Cl)cc4)cnc23)ccc1C(=O)NCCC1CCNCC1` [Example 189, 4-[[3-(4-chlorophenyl)imidazo[1,2-a]pyrazin-8-yl]amino]-2-methyl-N-(2-piperidin-4-ylethyl)benzamide;hydrochlo-ride], the IC90 came to 0.28 µM.

Consider `Cc1cc(Nc2nccn3c(-c4ccc(OC(F)F)cc4)cnc23)ccc1C(=O)NC(CO)CN1CCOCC1` (centres unmarked) [Example 251, 4-[[3-[4-(difluoromethoxy)phenyl]im-idazo[1,2-a]pyrazin-8-yl]amino]-N-(1-hydroxy-3-morpholin-4-ylpropan-2-yl)-2-methylbenzamide], for which the concentration for an effect of 90% (IC90) turned out to be 2.7 µM.
